This is an account of results in article PMC4193777 (PLoS ONE, 2014).

Assay [1] relates to neutrophils. Description: Priming of FPR2 agonist-induced superoxide response. The class given is cell-based, human. To be noted: F2Pal10 500 nM; latrunculin A treated. The method, then:
(§1) Human peripheral blood neutrophils were isolated from buffy coats from healthy blood donors using dextran sedimentation and Ficoll-Paque gradient centrifugation as described. The remaining erythrocytes were disrupted by hypotonic lysis, the neutrophils were washed twice, resuspended in KRG, and stored on melting ice until use. This isolation procedure permits cells to be purified with minimal granule mobilization.
(§2) The NADPH-oxidase activity was determined using isoluminol-enhanced chemiluminescence (CL), [27]. The CL activity was measured in a six-channel Biolumat LB 9505 (Berthold Co., Wildbad, Germany), using disposable 4-ml polypropylene tubes with a 900 µl reaction mixture containing 10^5 cells, isoluminol (2×10^−5 M) and HRP (2 U). The tubes were equilibrated in the Biolumat for 5 min at 37°C, after which the stimulus (100 µl) was added and the light emission was recorded continuously. Receptor desensitized cells were defined as naïve (non-desensitized) cells that had first been stimulated with a receptor specific agonist and returned to baseline after the resulting release of superoxide before a second stimulation. When reactivation experiments were performed with antagonists, the antagonists were added to the CL reaction mixture 1 min before the second stimulation. For studies with signaling inhibitors, cells were incubated with inhibitors at 37°C for 15 min before agonist addition. Control cells received no treatment but were incubated under the same conditions.
A. A representative experiment of an F2Pal10 induced response in control (solid line) and latrunculin A treated neutrophils (dashed line) is shown. The time point for addition of F2Pal10 is indicated by an arrow. Abscissa: Time of study (min); ordinate: Superoxide production (Mcpm). […] A non-priming cut-off line (fold increase = 1) is included as a horizontal broken line in the figure.

Assay [2] relates to desensitized FPR2. Description: ATP/ATPγS-induced cross-talk reactivation of desensitized FPR2 (superoxide). The format is cell-based, human. The settings on record: desensitized by WKYMVM (40 nM) or F2Pal10 (500 nM); ATPγS 50 µM. Here is the method:
as §1
(§3) The NADPH-oxidase activity was determined using isoluminol-enhanced chemiluminescence (CL), [27]. The CL activity was measured in a six-channel Biolumat LB 9505 (Berthold Co., Wildbad, Germany), using disposable 4-ml polypropylene tubes with a 900 µl reaction mixture containing 10^5 cells, isoluminol (2×10^−5 M) and HRP (2 U). The tubes were equilibrated in the Biolumat for 5 min at 37°C, after which the stimulus (100 µl) was added and the light emission was recorded continuously. […]
Figure 3 PAF- or ATP-stimulation induces reactivation of desensitized FPR2. […] The FPR2 specific inhibitor PBP10 (1 µM) was added 1 min prior to PAF stimulation (dashed line) and the release of superoxide anions was recorded continuously. […] The release of superoxide anions was recorded continuously. […]

Another assay deals with P2Y2R. Description: Direct NADPH-oxidase activation in naive neutrophils by P2Y2R agonists. The format is cell-based, human. The method, then:
as §1
as §2, with “For studies with signaling inhibitors, cells were incubated with inhibitors at 37°C for 15 min before agonist addition. Control cells received no treatment but were incubated under the same conditions.” left out

The target of assay [3] is T1, FPR2 (Homo sapiens, UniProt P25090).
T1 construct: Human peripheral blood neutrophils were isolated from buffy coats from healthy blood donors; endogenous in cells; host or cells: primary human peripheral blood neutrophils from buffy coats of healthy donors
T1 sequence (P25090 1-351): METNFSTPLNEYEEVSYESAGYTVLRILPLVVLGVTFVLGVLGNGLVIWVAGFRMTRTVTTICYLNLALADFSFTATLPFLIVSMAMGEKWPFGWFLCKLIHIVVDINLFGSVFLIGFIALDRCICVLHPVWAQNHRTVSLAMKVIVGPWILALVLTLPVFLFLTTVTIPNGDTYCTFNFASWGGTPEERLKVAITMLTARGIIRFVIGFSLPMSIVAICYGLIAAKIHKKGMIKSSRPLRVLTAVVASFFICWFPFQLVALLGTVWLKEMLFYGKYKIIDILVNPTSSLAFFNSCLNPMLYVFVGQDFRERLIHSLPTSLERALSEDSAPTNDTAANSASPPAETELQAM
Description: Neutrophil NADPH-oxidase activity (superoxide release), direct activation of naive cells. The class given is cell-based. To be noted: read-out: maximum response relative to WKYMVM, superoxide peak, naive human neutrophils; % of response induced by WKYMVM. Here is the method:
as §1, §2
Data analysis was performed using GraphPad Prism 6.0 (Graphpad Software, San Diego, CA, USA).
Representative experiments out of more than five are shown and an arrow indicates the time point for agonist addition. Abscissa: Time of study (min); ordinate: Superoxide production (Mcpm).

The test system of assay [4] is neutrophils. Description: Inhibition of FPR2 agonist-induced superoxide by pertussis toxin or kinase inhibitors. The format is cell-based, human. The settings on record: for inhibition of F2Pal10- and WKYMVM-induced superoxide by kinase inhibitor: inhibitors 20 nM to 1 µM (1 µM shown), 15 min at 37°C, WKYMVM 50 nM, F2Pal10 500 nM, n = 3. Here is the method:
as §1, §2
A. Primary human neutrophils were treated with pertussis toxin (PTX, 500 ng/ml final concentration) and samples were withdrawn at indicated time points. […] As a control, the PMA response (5×10^−8 M final concentration) from control cells (120 min incubation without PTX, solid line in the inset) or treated with PTX for 120 min (dashed line in the inset) is shown. Superoxide production (peak values) from pertussis toxin treated neutrophils was compared to that from non-treated control cells. A representative experiment out of more than five is shown. B and C. Fluo-3-AM/FuraRED labeled neutrophils were incubated without any additive (solid lines) or with EGTA (2 mM; dotted lines). […] Traces of representative calcium responses are shown and at least three experiments have been performed. Abscissa, time of study (sec); ordinate, fluorescence (arbitrary unit). D. Primary human neutrophils were incubated with different pharmacological kinase inhibitors (1 µM final concentration) for 15 min at 37°C. Control cells were incubated at the same condition but received no inhibitors. […] Data are presented as % inhibition compared to the control response (peak values of superoxide production were used, mean±SEM, n = 3).
The effects of these inhibitors were determined using different concentrations ranging from 20 nM to 1 µM.

In assay [5] the test system is desensitized FPR2. In words: PAF-induced cross-talk reactivation of desensitized FPR2 (superoxide). The class given is cell-based, human. To be noted: FPR2-desensitized neutrophils; PAF 100 nM. Here is the method: as §1, §2
Figure 3 PAF- or ATP-stimulation induces reactivation of desensitized FPR2. […] A representative experiment is shown and the time point for addition of FPR2 agonists is indicated by the first arrow, the time point for PAF stimulation (100 nM final concentration) with the second arrow. The control PAF response induced in naïve (non-desensitized) neutrophils is shown for comparison (dotted line). Abscissa: Time of study (min); ordinate: Superoxide production (Mcpm). B. Naïve neutrophils were first desensitized with F2Pal10 (F2Pal10des., 500 nM final concentration) and subsequently stimulated with PAF (100 nM final concentration; time point for PAF addition is indicated by an arrow). The FPR2 specific inhibitor PBP10 (1 µM) was added 1 min prior to PAF stimulation (dashed line) and the release of superoxide anions was recorded continuously. The PAF responses induced in naïve cells (solid line), as well as in F2Pal10-desensitized cells receiving no PBP10 (dotted line), are shown for comparison. Abscissa: Time of study (min); ordinate: Superoxide production (Mcpm). C. Effect of calyculin A on receptor cross-talk induced FPR2 reactivation. Cells desensitized with F2Pal10 (F2Pal10des.) were incubated with the phosphatase inhibitor calyculin A (60 nM; solid line) or buffer as control (dashed line) for 10 min at 37°C prior to PAF stimulation (100 nM). The release of superoxide anions was recorded continuously. Abscissa: Time of study (min); ordinate: Superoxide production (Mcpm). […] Abscissa: Time of study (min); ordinate: Superoxide production (Mcpm). […] The results are given as peak values of superoxide production following addition of ATPγS (mean+SEM; n = 3).
Figure 4 More pronounced reactivation was induced by PAF in neutrophils desensitized by the pepducin F2Pal10. […] The results are given as peak values of superoxide production from three separate experiments for the first stimulation with FPR2 agonists (mean+SEM, n = 3). […]

Assay [6] deals with T1, FPR2. Description: Inhibition of F2Pal10-induced superoxide release by receptor inhibitors/antagonists. The class given is cell-based. The settings on record: F2Pal10 500 nM; PBP10 1 µM, cyclosporin H 1 µM; representative of more than five. Here is the method:
as §1, §3
Figure 1 The F2Pal10 pepducin specifically activates FPR2. A. Primary human neutrophils were activated by F2Pal10 (500 nM) in the absence (solid line) or presence of the receptor specific inhibitor PBP10 (FPR2 specific inhibitor; 1 µM final concentration, dashed line) or the FPR1 antagonist cyclosporin H (CysH; 1 µM final concentration, dotted line) and the release of superoxide anions was recorded continuously. […] The release of superoxide anions was recorded continuously. […]

Where a SMILES comes first, the peptide text is derived from it. The star is where a group is joined. Palmitoyl = CCCCCCCCCCCCCCCC(=O)*

As to `C/C1=C/C(=O)O[C@@H]2C[C@@H](CC[C@H](C)/C=C\C=C\CC1)O[C@@](O)([C@@H]1CSC(=O)N1)C2` [latrunculin A], the “effect on neutrophil response to F2Pal10” value in the assay with neutrophils [1] is “dramatically increased and prolonged”.
With `Nc1ncnc2c1ncn2[C@@H]1O[C@H](CO[P@](=O)(O)O[P@](=O)(O)O[P@@](=O)(O)S)[C@@H](O)[C@H]1O` [ATPγS], the “superoxide release in FPR2-desensitized cells by P2Y2R agonist” value in the assay with desensitized FPR2 [2] was “induced a release of superoxide anions in FPR2 desensitized cells”. The “direct activation of NADPH-oxidase in naive neutrophils” value in the assay with P2Y2R was “can not directly activate the NADPH-oxidase in naïve neutrophils”.
As for `CCCCCCCCCCCCCCCC(=O)N[C@@H](CCCCN)C(=O)N[C@H](C(=O)N[C@@H](Cc1c[nH]cn1)C(=O)N[C@@H](CCCCN)C(=O)N[C@@H](CCCCN)C(=O)NCC(=O)N[C@@H](CCSC)C(=O)N[C@H](C(=O)N[C@@H](CCCCN)C(=O)N[C@@H](CO)C(=O)O)[C@@H](C)CC)[C@@H](C)CC` [F2Pal10] (Palmitoyl-KIHKKGMIKS-OH), on FPR2 [3], the Emax is 70%.
With `CCCCCCCCCCCCCC(=O)O[C@@H]1[C@@H](C)[C@@]2(O)[C@@H](C=C(CO)C[C@]3(O)C(=O)C(C)=C[C@@H]23)[C@@H]2C(C)(C)[C@]12OC(C)=O` [PMA], the “PMA responsiveness of pertussis toxin treated cells” value in the assay on neutrophils [4] (PMA 5×10^−8 M, PTX 120 min) was “retained their responsiveness to PMA”.
As for `CC(C)(C)n1nc(-c2ccc(Cl)cc2)c2c(N)ncnc21` [PP2], the “inhibition of F2Pal10- and WKYMVM-induced superoxide by kinase inhibitor” value with neutrophils [4] was “Very similar degrees of inhibition”.
On the same count and under the same terms, in the case of `COC[C@H]1OC(=O)c2coc3c2[C@@]1(C)C1=C(C3=O)[C@@H]2CCC(=O)[C@@]2(C)C[C@H]1OC(C)=O` [Wortmannin] it was “Very similar degrees of inhibition”.
For platelet activating factor [PAF], the “reactivation of desensitized FPR2 by PAF” value with desensitized FPR2 [5] is on record as “reactivates desensitized FPR2 to an actively signaling state”.
With cyclosporin H, at FPR2 [6], the “inhibition of F2Pal10-induced superoxide response” value is given as “not affected”.
